≈ marks a conversion by molar mass, not a printed value.

In one series the test system is PC-3. Nature of the series: Cytotoxicity against human PC3 cells after 7 days by MTT assay. It counts as functional. (Formazan colour is commonly taken as a measure of viable cells.)
The subject of another series is MCF7. The experiment in a line: Cytotoxicity against human MCF7 cells after 7 days by MTT assay. It counts as functional. As to conditions: MCF7, 168 h, read-out: ED50 (the source's name).
The test system of a further series is HT-29. The experiment in a line: Cytotoxicity against human HT-29 cells after 7 days by MTT assay. It counts as functional. As to conditions: HT-29, 168 h, read-out: ED50 (the source's name).
A further series deals with A498. Nature of the series: Cytotoxicity against human A498 cells after 7 days by MTT assay. It counts as functional. The settings on record: A498, 168 h, read-out: ED50 (the source's name).
The next series concerns A549. The experiment in a line: Cytotoxicity against human A549 cells after 7 days by MTT assay. It counts as functional. As to conditions: A549, 168 h, read-out: ED50 (the source's name).
The subject of a further series is MIA PaCa-2. The experiment in a line: Cytotoxicity against human MIAPaCa2 cells after 7 days by MTT assay. It counts as functional.
The next series deals with Artemia. The experiment in a line: Toxicity in brine shrimp. It counts as organism-based. As to conditions: in vivo.

Take `CCCCCCCCCC[C@@H]1O[C@H]([C@@H]2CC[C@H]([C@H](O)CCCCCCCCCC[C@@H](O)CC3=C[C@H](C)OC3=O)O2)CC[C@H]1O` [JIMENEZIN]: the ED50 in the series with PC-3 is given as 2.77 ×10⁻⁴ ug/ml; with MIA PaCa-2 it was 1.69 ×10⁻⁴ ug/ml. Further, the EC50 in the series with MCF7 was above 0.1 µg/mL; in the series with HT-29, 0.00425 µg/mL (≈ 0.00682 µM); with A498, 0.0494 µg/mL (≈ 0.0793 µM); in the series with A549 it was 0.0164 µg/mL (≈ 0.0263 µM). In the series on Artemia, the Activity is listed as 5.7 ×10⁻³ ug/ml.

As to `COc1cccc2c1C(=O)c1c(O)c3c(c(O)c1C2=O)C[C@@](O)(C(=O)CO)C[C@@H]3O[C@H]1C[C@H](N)[C@H](O)[C@H](C)O1` [DOXORUBICIN], the EC50 with PC-3 (Homo sapiens, PC-3, 168 h, read-out: ED50 (the source's name)) came out at 0.0213 µg/mL (≈ 0.0392 µM); with MCF7, 0.0897 µg/mL (≈ 0.165 µM); with HT-29, 0.0162 µg/mL (≈ 0.0298 µM); in the series on A498 it was 0.0011 µg/mL (≈ 0.00202 µM); in the series on A549, 0.00447 µg/mL (≈ 0.00822 µM); with MIA PaCa-2 (Homo sapiens, MIA PaCa-2, 168 h, read-out: ED50 (the source's name)), 0.00288 µg/mL (≈ 0.0053 µM).

Values taken from ChEMBL document CHEMBL1158674, “Jimenezin, a Novel Annonaceous Acetogenin from the Seeds of Rollinia mucosa Containing Adjacent TetrahydrofuranTetrahydropyran Ring Systems ,1” (J Nat Prod, 1998).
